Measured values taken from patent US9475842B2, “Hexadepsipeptide analogues as anticancer compounds” (PIRAMAL ENTERPRISES LIMITED, priority 2012, dated 2016).

Key:
[1] = test system: PC3 (prostate Cancer); experiment: Monolayer assay (CCK-8 cytotoxicity); format: cell-based, human; conditions: Homo sapiens; PC3, Prostate; 24 hrs exposure, CCK-8; read-out: IC50
Description: (§1) The assays were designed as in the reference, BMC Cancer, 2010, 10, 610, 1-11; the disclosure of which is incorporated by reference for the teaching of the assay.
(§2) Human tumour cell lines: Panc-1 (Pancreatic Cancer), HCT 116 (Colorectal Cancer), ACHN (Renal Cell Carcinoma), Calu-1 (Lung Carcinoma), MiaPaca2 (Pancreatic Cancer), FADU (Head and Neck Cancer), PC3 (prostate Cancer), G361 (Melanoma), MDA-MB435S (Melanoma), HeLa (Cervical Cancer) were grown in Minimal Essential Media with Eagle's Basal Salts (MEM-EBS) obtained from AMIMED (BioConcept-Switzerland). Tumour cell lines: MDA-MB231 (Breast Cancer), JURKAT (T cell leukaemia), H460 (Small Cell Lung Cancer) were cultured in RPMI 1640 (AMIMED, BioConcept, Switzerland) medium. All tumour cell lines were supplemented with 10% Foetal Bovine Serum (FBS) (GIBCO), 1% Penicillin/Streptomycin (Sigma) and 1% Anti-Anti (GIBCO) and grown in T-175 tissue culture flasks (Nunc). MCF-10A, a non-tumourigenic cell line, was cultured in Mammary Epithelial Basal Medium (MEBM) with all standard additions (Lonza, Catalog. No. CC-3150). All cells were grown in 5% CO2 incubator at 37° C. Cells were passaged at 80-90% confluence. Adherent cells were trypsinised using Trypsin-EDTA (Sigma) and maintained. All cell lines were purchased from ATCC (Rockville, Md., USA).
(§3) Compound of Formula (1a) [described in example 7] was dissolved in DMSO to give a required stock solution of 20 mM. Eight different concentrations of the compound of Formula (1a) were prepared by serial dilution of stock solution finally resulting in a (compared to the test concentration) 200-fold higher concentration. Compound of Formula (1a) was tested at the concentration of 0.0001 μM, 0.001 μM, 0.01 μM, 0.03 μM, 0.1 μM, 0.3 μM, 1 μM and 3 μM respectively. Each concentration was evaluated in triplicate.
(§4) Method for determination of IC50 of the compound of Formula (1a): • a) Different cancer/normal cells were seeded at a density of 3000 cells/200 μL well, in a tissue culture grade 96 well plate and allowed them to recover for 24 hrs in a humidified 5±0.2% CO2 incubator at 37±0.5° C. • b) After 24 hrs, 1 μL of 200× (200 times higher than required concentration is denoted as 200×) compound of Formula (1a), dissolved in DMSO, was added to the above tissue culture plate seeded with cancer/normal cells. The final concentration of DMSO was 0.5% in wells. DMSO was used as a vehicle control. • c) After 24 hrs the plate was removed from CO2 incubator and 5 μL of CCK-8 (Dojindo Molecular Technologies, Inc. USA, catalog, no. CK04-20) per well was added. • d) The plate was then placed at 37° C. for 2 hrs. • e) The absorbance was recorded at 450 nm. • f) The percent cytotoxicity was calculated using the following formula
(§5) The IC50 value was estimated by visual inspection of the concentration-effect curve. For calculation of mean IC50 values over the fourteen cell lines as tested, the geometric mean was selected.
(§6) The assays were designed as described above in example 16.
(§7) The IC50 value was estimated by visual inspection of the concentration-effect curve. For calculation of mean IC50 values over the six cell lines (PC3, MDA MB, HCT116, MCF7, MIAPaCa2, MCF10A) as tested, the geometric mean was selected.

[2] = test system: MDA-MB231 (Breast Cancer); experiment: Monolayer assay (CCK-8 cytotoxicity); format: cell-based, human; conditions: Homo sapiens, MDA-MB-231; MDAMB231, Breast; 24 hrs exposure, CCK-8; read-out: IC50
Description: as §1, §2, §3, §4, §5, §6, §7

Structure (SMILES): CC(C)CC1CCC(O)(C(C)(O)C(=O)NC2C(=O)N3NCCCC3C(=O)N(O)C(C)C(=O)NCC(=O)N3NCCCC3C(=O)N(O)C(C)C(=O)OC2C(C)C)OC1C (centres unmarked) [Formula (1a), N-(6,18-dihydroxy-22-isopropyl-7,19-dimethyl-5,8,11,17,20,24-hexaoxotetracosa hydrodipyridazino[6,1-f:6′,1′-o][1,4,7,10,13,16]oxapentaazacyclononadecin-23-yl)-2-hydroxy-2-(2-hydroxy-5-isobutyl-6-methyltetrahydro-2H-pyran-2-yl)propanamide]
- IC50 [1]: 5.2 ± 0.41 nM
- IC50 [2]: 6.1 ± 0.52 nM
